Results as given in patent publication US5422344A, “Method of treating retroviral infections in mammals” (The United States of America as represented by the …, priority 1990, dated 1995).
“Also recorded” adds a separate entry of the source.

Columns and labels:
HIV [1] = details: cited from earlier work
[2] = test system: HIV-IIIB (HIV-1) replication in H9 cells; experiment: HIV replication (RT activity) in acute infection of H9 cells; format: cell-based; details: for effect on HIV replication: non-cytotoxic doses of topo II inhibitors added during HIV infection
Protocol: HIV-Acute Infection of H9 Cells by HIV and Drug Treatment: One ml of culture supernatant of H9/HIV-IIIB cells (10^6 /ml) was used after centrifugation (200xg, 20 min) and filtration (0.45 μm) for infecting 10^5 H9 cells in the presence or absence of different levels of CPT, m-AMSA or VP-16. Control cells received equivalent volumes of DMSO. The cells were incubated for 1 h at 37° C., pelleted, washed and resuspended in fresh media. […] (1981) J. Virol. 38: 239-48.
CPT Inhibition of HIV Replication Following Acute Infection of H9 Cells with HIV-IIIB. In order to determine appropriate concentrations of CPT which would permit cell viability and growth while inhibiting viral infection or replication, H9 cells were infected with HIV-IIIB as described above in the absence or presence of different CPT doses. The cells were incubated for 1 h at 37° C., pelleted, washed and resuspended in fresh media. Reverse transcriptase (RT) activity in the culture media was measured seven days after infection.
Since CPT is an anticancer drug and a known topo I inhibitor, its effects on HIV replication were compared to those of other anticancer drugs which are known to inhibit the related topoisomerase II enzyme.

H9 cells = experiment: Cell number, viability (trypan blue dye exclusion) and growth of H9 cells; format: cell-based
HIV [3] = details: chronically infected cell lines; cited from earlier work
[4] = 0.5 μM VP16, day 6 post-infect.
[5] = 0.5 μM VP16, day 7 post-infect.
[6] = 0.5 μM VP16, day 8 post-infect.
[7] = 0.5 μM VP16, day 9 post-infect.
[8] = 1.5 μM VP16, day 6 post-infect.
[9] = 1.5 μM VP16, day 7 post-infect.
[10] = 1.5 μM VP16, day 8 post-infect.
[11] = 1.5 μM VP16, day 9 post-infect.
[12] = 0.4 μM m-Amsa, day 6 post-infect.
[13] = 0.4 μM m-Amsa, day 7 post-infect.
[14] = 0.4 μM m-Amsa, day 8 post-infect.
[15] = 0.4 μM m-Amsa, day 9 post-infect.
[16] = 1 μM m-Amsa, day 6 post-infect.
[17] = 1 μM m-Amsa, day 7 post-infect.
[18] = 1 μM m-Amsa, day 8 post-infect.
[19] = 1 μM m-Amsa, day 9 post-infect.

Q: Which “block of HIV infection at cell surface or at the level of reverse transcriptase” value (HIV [1]) does the source give for `Cc1cn(C2CC(N=[N+]=[N-])C(CO)O2)c(=O)[nH]c1=O` (stereo not shown) [AZT] here?
A: known to block HIV infection

Q: For `COc1cc(C2c3cc4c(cc3C(OC3OC5COC(C)OC5C(O)C3O)C3COC(=O)C23)OCO4)cc(OC)c1O` (stereo not shown) [VP-16], which RT/Cell [2, 4] is on record?
A: 26283 cpm/10^5 cells

Q: And the RT/Cell [2, 5]?
A: 26143 cpm/10^5 cells

Q: And the RT/Cell [2, 6]?
A: 29158 cpm/10^5 cells

Q: And the RT/Cell [2, 7]?
A: 25183 cpm/10^5 cells

Q: And the RT/Cell [2, 8]?
A: 32242 cpm/10^5 cells

Q: What about the RT/Cell [2, 9] of the same compound?
A: 33626 cpm/10^5 cells

Q: And the RT/Cell [2, 10]?
A: 30675 cpm/10^5 cells

Q: And the RT/Cell [2, 11]?
A: 29194 cpm/10^5 cells

Q: What about the “effect on HIV replication” value [2] of the same compound?
A: No effect on HIV replication was observed; also recorded: do not have any significant effect on HIV replication

Q: What about the “No. Cells” value (H9 cells; [4]) of the same compound?
A: 1 × 10^6

Q: And the “No. Cells” value (H9 cells; [5])?
A: 1.6 × 10^6

Q: And the “No. Cells” value (H9 cells; [6])?
A: 2.4 × 10^6

Q: What about the “No. Cells” value (H9 cells; [7]) of the same compound?
A: 3 × 10^6

Q: What about the “No. Cells” value (H9 cells; [8]) of the same compound?
A: 1 × 10^6

Q: And the “No. Cells” value (H9 cells; [9])?
A: 2 × 10^6

Q: What about the “No. Cells” value (H9 cells; [10]) of the same compound?
A: 2.4 × 10^6

Q: What about the “No. Cells” value (H9 cells; [11]) of the same compound?
A: 4 × 10^6

Q: For `COc1cc(NS(C)(=O)=O)ccc1Nc1c2ccccc2nc2ccccc12` [m-AMSA], which RT/Cell [2, 12] is on record?
A: 36070 cpm/10^5 cells

Q: What about the RT/Cell [2, 13] of the same compound?
A: 25372 cpm/10^5 cells

Q: What about the RT/Cell [2, 14] of the same compound?
A: 38594 cpm/10^5 cells

Q: And the RT/Cell [2, 15]?
A: 37556 cpm/10^5 cells

Q: And the RT/Cell [2, 16]?
A: 32674 cpm/10^5 cells

Q: And the RT/Cell [2, 17]?
A: 40057 cpm/10^5 cells

Q: What about the RT/Cell [2, 18] of the same compound?
A: 45558 cpm/10^5 cells

Q: What about the RT/Cell [2, 19] of the same compound?
A: 36442 cpm/10^5 cells

Q: And the “effect on HIV replication” value [2]?
A: do not have any significant effect on HIV replication

Q: What about the “effect on HIV replication” value ([2]; listed as m-Amsa) of the same compound?
A: No effect on HIV replication was observed

Q: And the “No. Cells” value (H9 cells; [12])?
A: 4 × 10^5

Q: And the “No. Cells” value (H9 cells; [13])?
A: 9 × 10^5

Q: What about the “No. Cells” value (H9 cells; [14]) of the same compound?
A: 1.3 × 10^6

Q: And the “No. Cells” value (H9 cells; [15])?
A: 2 × 10^6

Q: What about the “No. Cells” value (H9 cells; [16]) of the same compound?
A: 4 × 10^5

Q: And the “No. Cells” value (H9 cells; [17])?
A: 7.5 × 10^5

Q: And the “No. Cells” value (H9 cells; [18])?
A: 1.1 × 10^6

Q: What about the “No. Cells” value (H9 cells; [19]) of the same compound?
A: 2 × 10^6

Q: With interferon α as the compound, how does the “suppression of HIV expression” value (HIV [3]) read?
A: reported to suppress HIV expression in chronically infected cell lines
